According to US8962018B2, “Oral formulation of anhydrous olanzapine form I” (Laboratorios Lesvi, S.L., priority 2005, dated 2015):

Legend:
Type in all cases: physicochemical
[1] = Stability of olanzapine Form I product under ambient storage conditions
Procedure: Said method includes in vacuo drying of the solvate at a pressure ranging between 1 and 40 mmHg, preferably between 1 and 20 mmHg, and a temperature controlled between 10 and 50° C., preferably between 20 and 40° C. Said method provides olanzapine Form I in a simple manner, with a high yield of the end product (olanzapine Form I) and with high chemical purity (level of total impurities less than 0.3% as determined by HPLC), together with a high polymorphic purity (Form II<2%).

[2] = X-ray diffraction study of polymorphic form after direct compression; details: after direct compression into tablets
[3] = Effect of aqueous medium used for the coating on stability of the solid form; details: aqueous medium used for preparation of the coating

Structure (SMILES): Cc1cc2c(s1)Nc1ccccc1N=C2N1CCN(C)CC1 [olanzapine Form I, Olanzapine]
- Stability and colour variations [1]: remains stable and does not undergo colour variations
- Polymorphic form stability (formation of Form II) [2]: remains stable without any formation of detectable amounts of the polymorph Form II being observed
- Related substances and polymorphic form after aqueous coating [3]: no increase of related substances nor change in the polymorphic form
